The record followed here is patent publication US20220402948A1, “EGFR INHIBITOR, COMPOSITION AND PREPARATION METHOD THEREFOR” (BETTA PHARMACEUTICALS CO., LTD., priority 2019, published 2022).

Common to all, as to format: biochemical
For one experiment, the target named is EGFR WT (Homo sapiens, UniProt P00533). Put plainly: EGFR WT kinase test (mobility variation analysis, Caliper EZ Reader). Particulars: kinase enzymatic activity, Table 1. As to the method: (§1) Mobility variation analysis was performed to determine the affinity of the compound for EGFRΔ19del/T790M/C797S, EGFR WT and IGF1R. The enzymatic reaction scheme is as follows:
(§2) 1. Prepare 1*kinase buffer as follows.
(§3) 3. […] Prepare 2.5-fold final concentration of kinase solution with 1×Kinase buffer.
(§4) 4. Add 10 μL of 2.5-fold final concentration of kinase solution to the compound well and the positive control well; add 10 μL of 1×Kinase buffer to the negative control well.
(§5) 5. Centrifuge at 1000 rpm for 30 s, shake the reaction plate for well mixing, and then incubate at room temperature for 10 minutes.
(§6) 6. Prepare a mixture of ATP and Kinase substrate at 5/3-fold final concentration with 1×Kinase buffer.
(§7) 8. Centrifuge the 384-well plate at 1000 rpm for 30 s, shake it well and then incubate it at room temperature for corresponding time.
(§8) 9. Add 30 μL of stop detection solution to stop the kinase reaction, centrifuge at 1000 rpm for 30 s, and shake it well.
(§9) 10. Read conversion rate with Caliper EZ Reader.
(§10) % Inhibition=((Conversion%_max−Conversion%_sample)/(Conversion%_max−Conversion%_min))*100
(§11) Wherein: Conversion%_sample is the sample conversion rate reading; Conversion%_min: Mean value of negative control wells, representing the conversion rate reading of wells without enzymatic activity; Conversion%_max: Mean value of positive control wells, representing the conversion rate reading of wells without compound inhibition.
(§12) The dose-effect curve was fitted with concentration log value as X-axis and percentage inhibition rate as Y-axis. GraphPad Prism 5 analysis software was used for fitting Log (inhibitor) vs. response—Variable slope with the dose-effect curve to obtain IC50 value of enzymatic activity for each compound.
(§13) The calculation formula is as Y-Bottom+(Top-Bottom)/(1+10^((Log IC50−X)*HillSlope)).

Another experiment addresses EGFRΔ19del/T790M/C797S (Homo sapiens, UniProt P00533, T790M/C797S, form not given). Briefly: EGFR Δ19del/T790M/C797S kinase test (mobility variation analysis, Caliper EZ Reader). To be noted: kinase enzymatic activity, Table 1. As to the method:
as §1, §2, §3, §4, §5, §6, §7, §8, §9, §10, §11, §12, §13

The target of the next experiment is IGF1R (Homo sapiens, UniProt P08069). Put plainly: IGF1R kinase test (mobility variation analysis, Caliper EZ Reader). To be noted: kinase enzymatic activity, Table 1; read-out: EGFR IGF1R IC50. The protocol: as §1, §2
2. Preparation of compound concentration gradient: The test compound was tested with an initial concentration of 3000 nM (300 nM for some triple mutations and 100 nM for others), diluted in a 384 source plate (96-well plate for comparative compound 1 and compounds 1-38) to a 100% DMSO solution with 100-fold final concentration, and the compound is 3-fold diluted with Precision to 10 concentrations. A dispenser Echo 550 was used to transfer 250 nL 100-fold final concentration of the compound to the target plate OptiPlate-384F.
3. Prepare 2.5-fold final concentration (5-fold for comparative compound 1 and compounds 1-38) of kinase solution with 1×Kinase buffer. Following steps should also be carried out for comparative compound 1 and compounds 1-38: Add each prepared intermediate dilution compounds to the compound wells of 384-well plate respectively, and test the repeated wells of each concentration; add 5% DMSO of 5 plates into the negative control well and the positive control well respectively. Prepare 2.5-fold final concentration of kinase solution with 1×Kinase buffer.
as §4, §5, §6
7. Add 15 μL mixture of 5/3-fold (2.5-fold for comparative compound 1 and compounds 1-38) final concentration of ATP and substrate to start reaction.
as §7, §8, §9, §10, §11, §12, §13

pIC50: −log10 of the molar value.

EGFR WT, sequence (P00533 25-1210): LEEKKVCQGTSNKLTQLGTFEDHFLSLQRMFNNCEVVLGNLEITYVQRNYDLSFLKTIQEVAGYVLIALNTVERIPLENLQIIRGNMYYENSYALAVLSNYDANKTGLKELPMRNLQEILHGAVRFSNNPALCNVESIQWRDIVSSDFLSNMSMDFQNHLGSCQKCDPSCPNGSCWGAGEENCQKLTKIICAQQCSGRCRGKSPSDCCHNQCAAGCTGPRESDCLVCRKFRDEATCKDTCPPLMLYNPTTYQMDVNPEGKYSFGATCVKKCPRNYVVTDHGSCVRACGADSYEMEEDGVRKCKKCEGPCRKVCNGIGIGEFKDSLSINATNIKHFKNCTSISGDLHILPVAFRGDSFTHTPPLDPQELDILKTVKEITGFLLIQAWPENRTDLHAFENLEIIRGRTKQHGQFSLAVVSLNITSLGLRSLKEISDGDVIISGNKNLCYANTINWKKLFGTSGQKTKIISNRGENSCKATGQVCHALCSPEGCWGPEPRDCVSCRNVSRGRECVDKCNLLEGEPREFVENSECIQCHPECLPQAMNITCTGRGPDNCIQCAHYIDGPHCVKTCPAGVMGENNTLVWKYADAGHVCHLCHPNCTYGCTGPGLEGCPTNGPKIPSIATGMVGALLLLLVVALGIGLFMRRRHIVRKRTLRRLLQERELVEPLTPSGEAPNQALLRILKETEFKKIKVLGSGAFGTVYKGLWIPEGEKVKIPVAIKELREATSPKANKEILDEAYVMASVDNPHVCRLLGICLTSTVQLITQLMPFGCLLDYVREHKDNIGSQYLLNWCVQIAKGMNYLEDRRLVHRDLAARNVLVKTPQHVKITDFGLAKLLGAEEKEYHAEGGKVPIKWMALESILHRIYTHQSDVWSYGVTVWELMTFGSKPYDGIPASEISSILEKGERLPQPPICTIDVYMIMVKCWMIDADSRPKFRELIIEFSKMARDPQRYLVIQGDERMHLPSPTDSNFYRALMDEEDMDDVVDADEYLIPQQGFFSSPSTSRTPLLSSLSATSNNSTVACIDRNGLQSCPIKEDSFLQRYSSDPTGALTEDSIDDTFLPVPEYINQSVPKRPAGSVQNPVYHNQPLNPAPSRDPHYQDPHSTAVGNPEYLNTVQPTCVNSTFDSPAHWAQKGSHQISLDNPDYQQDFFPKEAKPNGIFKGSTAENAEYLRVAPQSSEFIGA
IGF1R, sequence (P08069 31-1367, species assumed): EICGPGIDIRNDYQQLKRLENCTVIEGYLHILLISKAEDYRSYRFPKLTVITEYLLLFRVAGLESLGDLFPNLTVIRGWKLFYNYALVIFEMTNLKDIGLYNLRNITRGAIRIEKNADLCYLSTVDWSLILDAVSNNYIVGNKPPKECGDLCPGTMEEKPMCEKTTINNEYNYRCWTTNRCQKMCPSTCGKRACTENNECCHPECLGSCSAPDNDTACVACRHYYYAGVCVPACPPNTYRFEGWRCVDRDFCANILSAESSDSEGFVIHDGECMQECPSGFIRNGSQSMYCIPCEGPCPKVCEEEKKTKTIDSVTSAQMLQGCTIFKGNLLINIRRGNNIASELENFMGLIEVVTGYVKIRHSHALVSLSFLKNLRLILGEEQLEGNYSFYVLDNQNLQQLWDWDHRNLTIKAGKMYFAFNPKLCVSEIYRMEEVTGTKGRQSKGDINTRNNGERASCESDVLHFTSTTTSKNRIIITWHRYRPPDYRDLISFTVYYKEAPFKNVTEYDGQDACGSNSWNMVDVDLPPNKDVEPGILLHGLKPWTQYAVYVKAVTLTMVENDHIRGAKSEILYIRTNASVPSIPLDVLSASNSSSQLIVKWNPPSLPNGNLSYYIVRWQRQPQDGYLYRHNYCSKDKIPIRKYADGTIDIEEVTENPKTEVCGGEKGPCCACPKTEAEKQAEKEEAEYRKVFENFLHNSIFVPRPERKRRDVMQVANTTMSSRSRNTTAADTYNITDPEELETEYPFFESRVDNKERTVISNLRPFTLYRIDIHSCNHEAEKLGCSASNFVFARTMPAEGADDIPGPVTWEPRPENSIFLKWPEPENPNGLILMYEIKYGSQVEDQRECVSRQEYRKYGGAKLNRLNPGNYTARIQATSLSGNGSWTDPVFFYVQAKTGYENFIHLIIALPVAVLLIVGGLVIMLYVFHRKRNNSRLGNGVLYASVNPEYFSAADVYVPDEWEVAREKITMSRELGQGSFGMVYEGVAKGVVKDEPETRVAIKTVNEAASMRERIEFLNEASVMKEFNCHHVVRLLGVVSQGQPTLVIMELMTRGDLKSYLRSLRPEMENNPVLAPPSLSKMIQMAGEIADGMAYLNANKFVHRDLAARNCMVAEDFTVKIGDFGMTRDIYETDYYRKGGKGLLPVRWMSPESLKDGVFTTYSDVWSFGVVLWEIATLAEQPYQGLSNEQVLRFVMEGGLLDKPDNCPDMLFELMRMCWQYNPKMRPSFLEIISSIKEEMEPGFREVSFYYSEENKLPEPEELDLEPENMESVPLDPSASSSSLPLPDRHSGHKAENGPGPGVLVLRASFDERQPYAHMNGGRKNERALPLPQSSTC
EGFRΔ19del/T790M/C797S, sequence (P00533 with tags, fused parts or gaps DEL746-750/T790M/C797S, form open): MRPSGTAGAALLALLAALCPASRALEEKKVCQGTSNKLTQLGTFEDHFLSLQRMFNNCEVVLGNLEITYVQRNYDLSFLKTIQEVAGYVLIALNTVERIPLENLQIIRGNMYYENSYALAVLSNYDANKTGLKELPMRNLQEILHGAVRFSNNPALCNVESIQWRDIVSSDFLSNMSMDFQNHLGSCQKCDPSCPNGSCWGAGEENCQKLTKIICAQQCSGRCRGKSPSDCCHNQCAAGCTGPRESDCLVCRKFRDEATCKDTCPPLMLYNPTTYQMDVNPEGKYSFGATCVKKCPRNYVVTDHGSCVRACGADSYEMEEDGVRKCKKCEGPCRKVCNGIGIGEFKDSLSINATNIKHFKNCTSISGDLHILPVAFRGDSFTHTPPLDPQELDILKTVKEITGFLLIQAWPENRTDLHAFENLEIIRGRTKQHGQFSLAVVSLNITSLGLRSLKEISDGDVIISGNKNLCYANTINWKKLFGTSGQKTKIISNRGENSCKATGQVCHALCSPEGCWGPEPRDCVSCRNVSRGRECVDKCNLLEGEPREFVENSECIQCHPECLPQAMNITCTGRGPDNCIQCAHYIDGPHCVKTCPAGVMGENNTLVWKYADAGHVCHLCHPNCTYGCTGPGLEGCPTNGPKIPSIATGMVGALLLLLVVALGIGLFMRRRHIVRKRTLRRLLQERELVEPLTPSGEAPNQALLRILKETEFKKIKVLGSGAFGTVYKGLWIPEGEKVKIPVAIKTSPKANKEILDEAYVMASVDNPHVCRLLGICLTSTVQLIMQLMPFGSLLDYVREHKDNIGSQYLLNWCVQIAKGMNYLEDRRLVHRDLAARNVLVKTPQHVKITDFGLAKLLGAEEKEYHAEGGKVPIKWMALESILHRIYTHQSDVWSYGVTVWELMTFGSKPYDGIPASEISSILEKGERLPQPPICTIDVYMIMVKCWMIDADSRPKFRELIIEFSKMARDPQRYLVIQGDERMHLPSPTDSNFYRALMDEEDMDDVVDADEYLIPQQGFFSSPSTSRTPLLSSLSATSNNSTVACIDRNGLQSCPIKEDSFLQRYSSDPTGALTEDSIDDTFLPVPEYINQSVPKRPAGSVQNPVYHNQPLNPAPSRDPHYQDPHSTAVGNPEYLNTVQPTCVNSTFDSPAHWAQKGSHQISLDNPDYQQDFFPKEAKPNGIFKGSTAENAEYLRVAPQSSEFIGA

Broadly, the pIC50 is the IC50 on a negative log10 scale, so that one unit is a factor of ten. In the case of `CCc1cc(Nc2ncc(Br)c(Nc3ccc(-c4ccn[nH]4)cc3P(C)(C)=O)n2)c(OC)cc1N1CCC(N2CCN(C)CC2)CC1` [Compound 39, (2-((5-Bromo-2-((5-ethyl-2-methoxy-4-(4-(4-methylpiperazin-1-yl)piperidin-1-yl)phenyl)amino)pyrimidin-4-yl)amino)-5-(1H-pyrazol-5-yl)phenyl)dimethylphosphine oxide], the figures for the pIC50 on EGFR WT, at EGFRΔ19del/T790M/C797S and on IGF1R were 7.74, 9.40 and 6.86, respectively.

In the case of `CCc1cc(Nc2ncc(Cl)c(Nc3ccc(-c4cnn5c4CC(C)(C)C5)cc3P(C)(C)=O)n2)c(OC)cc1N1CCC(N2CCN(C)CC2)CC1` [Compound 41, (2-((5-Chloro-2-((5-ethyl-2-methoxy-4-(4-(4-methylpiperazin-1-yl)piperidin-1-yl)phenyl)amino)pyrimidin-4-yl)amino)-5-(5,5-dimethyl-5,6-dihydro-tetrahydro-pyrrolo[1,2-b]pyrazol-3-)phenyl)dimethylphosphine oxide], the results for the pIC50 against EGFR WT, against EGFRΔ19del/T790M/C797S and at IGF1R were 7.23, 8.82 and 6.13, respectively.

Take `CCc1cc(Nc2ncc(Br)c(Nc3ccc(-c4cn(C)c5cccnc45)cc3P(C)(C)=O)n2)c(OC)cc1N1CCC(N2CCN(C)CC2)CC1` [Compound 42]: the figures for the pIC50 against EGFR WT, at EGFRΔ19del/T790M/C797S and on IGF1R were 7.06, 8.91 and 5.93, respectively.

Consider `CCc1cc(Nc2ncc(Br)c(Nc3ccc(-c4cc5cc(C#N)ccc5[nH]4)cc3P(C)(C)=O)n2)c(OC)cc1N1CCC(N2CCN(C)CC2)CC1` [Compound 43], for which the pIC50 at EGFR WT was 7.08; against EGFRΔ19del/T790M/C797S it was 8.60; on IGF1R, 6.13.

In the case of `CCc1cc(Nc2ncc(Cl)c(Nc3ccc(-c4cn[nH]c4)cc3P(C)(C)=O)n2)c(OC)cc1N1CCC(N2CCN(C)CC2)CC1` [Compound 48, (2-((5-Chloro-2-((5-ethyl-2-methoxy-4-(4-(4-methylpiperazin-1-yl)piperidin-1-yl)phenyl)amino)pyrimidin-4-yl)amino)-5-(1H-pyrazol-4-yl)phenyl)dimethylphosphine oxide], the results for the pIC50 against EGFRΔ19del/T790M/C797S and on IGF1R were 9.52 and 6.95, respectively.

As to `CCc1cc(Nc2ncc(Br)c(Nc3ccc(-n4cccn4)cc3P(C)(C)=O)n2)c(OC)cc1N1CCC(N2CCN(C)CC2)CC1` [Compound 49, (2-((5-Bromo-2-((5-ethyl-2-methoxy-4-(4-(4-methylpiperazin-1-yl)piperidin-1-yl)phenyl)amino)pyrimidin-4-yl)amino)-5-(1H-pyrazol-1-yl)phenyl)dimethylphosphine oxide], the pIC50 on EGFR WT was 6.38; against EGFRΔ19del/T790M/C797S, 8.39; at IGF1R it was 5.56.

As for `CCc1cc(Nc2ncc(Br)c(Nc3ccc(-c4cccc5cc[nH]c45)cc3P(C)(C)=O)n2)c(OC)cc1N1CCC(N2CCN(C)CC2)CC1` [Compound 52], the pIC50 against EGFR WT is 6.69; against EGFRΔ19del/T790M/C797S, 8.72; on IGF1R, 5.72.

As for `CCc1cc(Nc2ncc(Cl)c(Nc3ccc(-c4cnccc4OC)cc3P(C)(C)=O)n2)c(OC)cc1N1CCC(N2CCN(C)CC2)CC1` [Compound 53, (2-((5-Chloro-2-((5-ethyl-2-methoxy-4-(4-(4-methylpiperazin-1-yl)piperidin-1-yl)phenyl)amino)pyrimidin-4-yl)amino)-5-(4-methoxypyridin-3-yl)phenyl)dimethylphosphine oxide], the pIC50 at EGFR WT was 7.19; at EGFRΔ19del/T790M/C797S it was 9.22; on IGF1R, 5.96.

With `CCc1cc(Nc2ncc(Br)c(Nc3ccc(-c4c(C)cnn4C)cc3P(C)(C)=O)n2)c(OC)cc1N1CCC(N2CCN(C)CC2)CC1` [Compound 54], the values for the pIC50 on EGFR WT, at EGFRΔ19del/T790M/C797S and on IGF1R were 7.37, 9.22 and 6.20, respectively.

`CCc1cc(Nc2ncc(Cl)c(Nc3ccc(-c4ccnc5c4ccn5C)cc3P(C)(C)=O)n2)c(OC)cc1N1CCC(N2CCN(C)CC2)CC1` [Compound 56, (2-((5-Chloro-2-((5-ethyl-2-methoxy-4-(4-(4-methylpiperazin-1-yl)piperidin-1-yl)phenyl)amino)pyrimidin-4-yl)amino)-5-(1-methyl-1H-pyrrolo[2,3-b]pyridin-4-yl)phenyl)dimethylphosphine oxide]: the pIC50 on EGFR WT is 7.14; against EGFRΔ19del/T790M/C797S, 8.62; on IGF1R, 6.05.

In the case of `CCOc1noc(C)c1-c1ccc(Nc2nc(Nc3cc(CC)c(N4CCC(N5CCN(C)CC5)CC4)cc3OC)ncc2Cl)c(P(C)(C)=O)c1` [Compound 58, (2-((5-Chloro-2-((5-ethyl-2-methoxy-4-(4-(4-methylpiperazin-1-yl)piperidin-1-yl)phenyl)amino)pyrimidin-4-yl)amino)-5-(3-ethoxy-5-methylisoxazol-4-yl)phenyl)dimethylphosphine oxide], the pIC50 against EGFR WT was 7.19; against EGFRΔ19del/T790M/C797S, 8.43; on IGF1R it was 6.56.

Take `CCc1cc(Nc2ncc(Br)c(Nc3ccc(-c4ncsc4C)cc3P(C)(C)=O)n2)c(OC)cc1N1CCC(N2CCN(C)CC2)CC1` [Compound 60]: the figures for the pIC50 on EGFR WT, at EGFRΔ19del/T790M/C797S and on IGF1R were 7.33, 9.22 and 6.38, respectively.

Consider `CCc1cc(Nc2ncc(Br)c(Nc3ccc(-c4ncnn4C)cc3P(C)(C)=O)n2)c(OC)cc1N1CCC(N2CCN(C)CC2)CC1` [Compound 62, (2-((5-Bromo-2-((5-ethyl-2-methoxy-4-(4-(4-methylpiperazin-1-yl)piperidin-1-yl)phenyl)amino]pyrimidin-4-yl)amino)-5-(1-methyl-1H-1,2,4-triazol-5-yl)phenyl)dimethylphosphine oxide], for which the pIC50 against EGFR WT was 6.67; on EGFRΔ19del/T790M/C797S, 9.10; at IGF1R, 6.00.

`CCc1cc(Nc2ncc(Br)c(Nc3ccc(-c4cn(C)cn4)cc3P(C)(C)=O)n2)c(OC)cc1N1CCC(N2CCN(C)CC2)CC1` [Compound 68, (2-((5-Bromo-2-((5-ethyl-2-methoxy-4-(4-(4-methylpiperazin-1-yl)piperidin-1-yl)phenyl)amino)pyrimidin-4-yl)amino)-5-(1-methyl-1H-imidazol-4-yl)phenyl)dimethylphosphine oxide]: the pIC50 at EGFR WT was 7.07; at EGFRΔ19del/T790M/C797S, 9.05; at IGF1R, 6.18.

For `CCc1cc(Nc2ncc(Br)c(Nc3ccc(-c4nccn4C4CC4)cc3P(C)(C)=O)n2)c(OC)cc1N1CCC(N2CCN(C)CC2)CC1` [Compound 69], the pIC50 was 6.50 at EGFR WT, 8.40 against EGFRΔ19del/T790M/C797S and 5.71 on IGF1R.

As for `CCc1cc(Nc2ncc(Br)c(Nc3ccc(-c4cccc(N(C)C)n4)cc3P(C)(C)=O)n2)c(OC)cc1N1CCC(N2CCN(C)CC2)CC1` [Compound 71], the pIC50 at EGFR WT is 7.26; against EGFRΔ19del/T790M/C797S it was 8.89; at IGF1R, 6.15.

For `CCc1cc(Nc2ncc(Cl)c(Nc3ccc(-c4cccc5ocnc45)cc3P(C)(C)=O)n2)c(OC)cc1N1CCC(N2CCN(C)CC2)CC1` [Compound K-052, (5-(Benzo[d]oxazol-4-yl)-2-((5-chloro-2-((5-ethyl-2-methoxy-4-(4-(4-methylpiperazin-1-yl)piperidin-1-yl)phenyl)amino)pyrimidin-4-yl)amino)phenyl)dimethylphosphine oxide], the pIC50 is 7.36 against EGFR WT, 8.80 against EGFRΔ19del/T790M/C797S and 6.05 at IGF1R.

For `CCn1cc(-c2cc(Nc3ncc(Br)c(Nc4ccc(-c5nn(C)c6ncccc56)cc4P(C)(C)=O)n3)c(OC)cc2N2CCC(N3CCN(C)CC3)CC2)cn1` [Compound K-102, (2-((5-Bromo-2-((5-(1-ethyl-1H-pyrazol-4-yl)-2-methoxy-4-(4-(4-methylpiperazin-1-yl)piperidin-1-yl)phenyl)amino)pyrimidin-4-yl)amino)-5-(1-methyl-1H-pyrazolo[3,4-b]pyridin-3-yl)phenyl)dimethylphosphine oxide], the pIC50 against EGFRΔ19del/T790M/C797S was 9.52.
